row,SMILES,melting point [°C]
1,"COc1cc(COc2nn(-c3ccccc3)cc2C(N)=O)ccc1OCc1nc(-c2ccco2)oc1C [Example 74, 3-[(4-{[2-(2-furyl)-5-methyl-1,3-oxazol-4-yl]methoxy}-3-methoxybenzyl)oxy]-1-phenyl-1H-pyrazole-4-carboxamide]",175 to 176
2,"Cc1oc(-c2ccccc2)nc1COc1ccc(COc2nn(-c3ccccc3)cc2C=O)cc1 [Example 80, 3-({4-[(2-phenyl-5-methyl-1,3-oxazol-4-yl)methoxy]benzyl}oxy)-1-phenyl-1H-pyrazole-4-carbaldehyde]",152 to 153
3,"Cc1oc(-c2ccccc2)nc1COc1ccc(COc2nn(-c3ccccc3)cc2CO)cc1 [Example 81, [3-({4-[(2-phenyl-5-methyl-1,3-oxazol-4-yl)methoxy]benzyl}oxy)-1-phenyl-1H-pyrazol-4-yl]methanol]",118 to 119
4,"Cc1oc(-c2ccccc2)nc1COc1ccc(OCc2nc(-c3ccccc3)oc2CO)cc1 [Example 91, [4-({4-[(5-methyl-2-phenyl-1,3-oxazol-4-yl)methoxy]phenoxy}methyl)-2-phenyl-1,3-oxazol-5-yl]methanol]",157 to 158
5,"COCOCc1nc(-c2ccccc2)oc1COc1ccc(OCc2nc(-c3ccccc3)oc2C)cc1 [Example 92, 4-[(methoxymethoxy)methyl]-5-({4-[(5-methyl-2-phenyl-1,3-oxazol-4-yl)methoxy]phenoxy}methyl)-2-phenyl-1,3-oxazole]",74 to 75

# The next lines start with the values.
row,melting point [°C],SMILES
1,177 to 178,"CCOC(=O)/C=C/c1cn(-c2ccccc2)nc1OCc1ccc(OCc2nc(-c3ccco3)oc2C)c(OC)c1 [Example 78, ethyl (2E)-3-{3-[(4-{[2-(2-furyl)-5-methyl-1,3-oxazol-4-yl]methoxy}-3-methoxybenzyl)oxy]-1-phenyl-1H-pyrazol-4-yl}-2-propenoate]"
2,204 to 205,"COc1cc(COc2nn(-c3ccccc3)cc2/C=C/C(=O)O)ccc1OCc1nc(-c2ccco2)oc1C [Example 79, (2E)-3-{3-[(4-{[2-(2-furyl)-5-methyl-1,3-oxazol-4-yl]methoxy}-3-methoxybenzyl)oxy]-1-phenyl-1H-pyrazol-4-yl}-2-propenoic acid]"
3,154 to 155,"CCOC(=O)/C=C/c1cn(-c2ccccc2)nc1OCc1ccc(OCc2nc(-c3ccccc3)oc2C)cc1 [Example 82, ethyl (2E)-3-[3-({4-[(2-phenyl-5-methyl-1,3-oxazol-4-yl)methoxy]benzyl}oxy)-1-phenyl-1H-pyrazol-4-yl]-2-propenoate]"
4,186 to 187,"Cc1oc(-c2ccccc2)nc1COc1ccc(COc2nn(-c3ccccc3)cc2/C=C/C(=O)O)cc1 [Example 83, (2E)-3-[3-({4-[(2-phenyl-5-methyl-1,3-oxazol-4-yl)methoxy]benzyl}oxy)-1-phenyl-1H-pyrazol-4-yl]-2-propenoic acid]"
5,148 to 149,"Cc1oc(-c2ccco2)nc1COc1ccc(COc2nn(-c3ccccc3)cc2C=O)cc1 [Example 85, 3-[(4-{[2-(2-furyl)-5-methyl-1,3-oxazol-4-yl]methoxy}benzyl)oxy]-1-phenyl-1H-pyrazole-4-carbaldehyde]"
6,142 to 143,"CCOC(=O)/C=C/c1cn(-c2ccccc2)nc1OCc1ccc(OCc2nc(-c3ccco3)oc2C)cc1 [Example 87, ethyl (2E)-3-(3-[(4-{[2-(2-furyl)-5-methyl-1,3-oxazol-4-yl]methoxy}benzyl)oxy]-1-phenyl-1H-pyrazol-4-yl}-2-propenoate]"
7,144 to 145,"Cc1oc(-c2ccco2)nc1COc1ccc(COc2nn(-c3ccccc3)cc2/C=C/C(=O)O)cc1 [Example 88, (2E)-3-{3-[(4-{[2-(2-furyl)-5-methyl-1,3-oxazol-4-yl]methoxy}benzyl)oxy]-1-phenyl-1H-pyrazol-4-yl}-2-propenoic acid]"
8,158 to 159,"Cc1oc(-c2ccco2)nc1COc1ccc(COc2nn(-c3ccccc3)cc2C#N)cc1 [Example 89, 3-[(4-{[2-(2-furyl)-5-methyl-1,3-oxazol-4-yl]methoxy}benzyl)oxy]-1-phenyl-1H-pyrazole-4-carbonitrile]"

# Source: patent US7368578B2, “Five-membered heterocyclic compounds” (Takeda Pharmaceutical Company Limited, priority 2002, dated 2008)
